Experimental data as given in US7812183B2, “Benzopyran derivatives as potassium channel openers” (Janssen Pharmaceutica NV, priority 2005, dated 2010).

Target: T1, KATP channels (Homo sapiens, UniProt O60706+Q14654)
T1 construct: TE671 human medulloblastoma cells were obtained from ATCC; host or cells: TE671 human medulloblastoma cells
Assay: Potassium Channel Assay (FLIPR membrane potential, TE671 cells)
Format: cell-based
Conditions: TE671 human medulloblastoma cells, Membrane Potential Assay Dye, room temperature, hyperpolarization from KATP channel opening
Protocol: TE671 human medulloblastoma cells were obtained from ATCC and grown in Dulbecco's modified Eagle's medium (DMEM) supplemented with 10% fetal bovine serum, 100 U/ml penicillin and 100 U/ml streptomycine.
The day before testing, the cells were plated in black 96-well plates at 50K/well. On the day of testing, the growth media was removed, then 100 μl of FLIPR buffer (20 mM HEPES, 120 mM NaCl, 2 mM KCl, 2 mM CaCl2, 1 mM MgCl2, 5 mM Glucose) and 100 μl of Membrane Potential Assay Dye (Molecular Devices) dissolved in FLIPR buffer were added to each well. The cells were incubated at room temperature for 15 to 30 min.
The effect of test compounds on KATP channels were evaluated on a fluorometric imaging plate reader (FLIPR, Molecular Devices) at room temperature. After a baseline period, 50 μl of 5× stock solution of test compound prepared in FLIPR buffer was added and fluorescent change was monitored for 3 minutes. After this reading, glyburide, a KATP channel blocker, was added to a final concentration of 5 μM to check the specificity of the test compound as a KATP channel openers. Hyperpolarization resulting from KATP channel opening was observed as a decrease in fluorescent intensity.
Representative compounds of the present invention were tested according to the procedure described above, with results as listed in Table 7, below.

T1 sequence (O60706 1-1549 isoform O60706-2): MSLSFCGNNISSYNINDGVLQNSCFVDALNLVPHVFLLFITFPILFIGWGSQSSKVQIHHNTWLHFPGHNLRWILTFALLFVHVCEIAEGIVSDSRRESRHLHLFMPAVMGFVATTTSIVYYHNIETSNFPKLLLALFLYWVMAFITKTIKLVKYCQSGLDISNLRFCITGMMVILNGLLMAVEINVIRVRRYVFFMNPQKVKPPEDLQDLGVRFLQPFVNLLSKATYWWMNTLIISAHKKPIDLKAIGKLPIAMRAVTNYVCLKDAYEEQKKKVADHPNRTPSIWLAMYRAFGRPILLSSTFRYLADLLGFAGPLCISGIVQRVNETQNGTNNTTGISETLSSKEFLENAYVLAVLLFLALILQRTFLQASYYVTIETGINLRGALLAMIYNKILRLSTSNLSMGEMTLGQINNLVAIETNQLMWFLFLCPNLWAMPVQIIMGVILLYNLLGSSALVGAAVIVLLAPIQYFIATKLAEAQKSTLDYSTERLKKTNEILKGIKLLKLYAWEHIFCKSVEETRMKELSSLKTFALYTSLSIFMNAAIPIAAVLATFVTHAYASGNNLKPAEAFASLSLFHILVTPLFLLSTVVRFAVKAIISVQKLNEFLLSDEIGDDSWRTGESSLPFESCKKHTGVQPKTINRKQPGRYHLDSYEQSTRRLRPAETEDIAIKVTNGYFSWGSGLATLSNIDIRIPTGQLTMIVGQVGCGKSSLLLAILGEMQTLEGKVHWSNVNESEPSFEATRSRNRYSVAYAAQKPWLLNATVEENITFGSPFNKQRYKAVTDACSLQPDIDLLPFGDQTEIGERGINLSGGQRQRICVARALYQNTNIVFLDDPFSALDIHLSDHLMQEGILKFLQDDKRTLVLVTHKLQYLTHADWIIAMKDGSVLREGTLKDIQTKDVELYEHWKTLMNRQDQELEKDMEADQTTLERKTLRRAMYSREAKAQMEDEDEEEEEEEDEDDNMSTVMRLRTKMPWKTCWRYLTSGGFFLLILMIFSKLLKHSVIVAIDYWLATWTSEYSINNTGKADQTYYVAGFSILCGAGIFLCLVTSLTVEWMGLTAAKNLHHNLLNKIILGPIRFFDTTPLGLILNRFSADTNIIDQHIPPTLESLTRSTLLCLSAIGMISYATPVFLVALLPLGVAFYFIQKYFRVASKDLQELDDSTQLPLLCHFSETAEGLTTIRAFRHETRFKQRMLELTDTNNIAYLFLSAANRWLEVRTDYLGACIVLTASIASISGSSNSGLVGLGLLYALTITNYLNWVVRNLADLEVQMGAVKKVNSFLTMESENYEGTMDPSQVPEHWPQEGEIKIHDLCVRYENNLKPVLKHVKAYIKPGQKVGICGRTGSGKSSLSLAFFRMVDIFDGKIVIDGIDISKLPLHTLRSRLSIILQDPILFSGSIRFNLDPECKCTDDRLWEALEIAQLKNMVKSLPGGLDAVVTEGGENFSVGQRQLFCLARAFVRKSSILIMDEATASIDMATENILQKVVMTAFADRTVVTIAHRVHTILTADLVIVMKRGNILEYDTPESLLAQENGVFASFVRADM
T1 sequence (Q14654 whole entry): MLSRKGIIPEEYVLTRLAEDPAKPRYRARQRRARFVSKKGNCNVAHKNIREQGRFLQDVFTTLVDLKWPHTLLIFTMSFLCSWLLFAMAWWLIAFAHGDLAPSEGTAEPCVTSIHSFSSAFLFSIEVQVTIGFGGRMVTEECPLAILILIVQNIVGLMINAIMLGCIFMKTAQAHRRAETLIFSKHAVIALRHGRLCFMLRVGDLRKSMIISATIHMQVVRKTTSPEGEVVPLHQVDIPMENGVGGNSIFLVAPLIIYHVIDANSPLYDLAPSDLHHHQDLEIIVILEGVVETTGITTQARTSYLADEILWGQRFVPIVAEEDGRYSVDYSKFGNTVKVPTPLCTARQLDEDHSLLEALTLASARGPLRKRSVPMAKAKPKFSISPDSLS

EC50 [µM]	SMILES
26.4	CC1(C)Oc2ccncc2[C@@H](Oc2ccn(-c3ccc(Cl)cc3)n2)[C@@H]1O (racemic) [Compound 109, 4-[1-(4-Chloro-phenyl)-1H-pyrazol-3-yloxy]-2,2-dimethyl-3,4-dihydro-2H-pyrano[3,2-c]pyridin-3-ol]
7.9	CC1(C)C=C(n2cncc2-c2ccc(Cl)cc2)c2cc(C#N)ccc2O1 [Compound 63, 4-[5-(4-Chloro-phenyl)-imidazol-1-yl]-2,2-dimethyl-2H-chromene-6-carbonitrile]
6.04	CC1(C)Oc2ccc(C#N)cc2[C@@H](N2C(=O)c3ccncc3C2=O)[C@@H]1O [Compound 26, 4R-(1,3-Dioxo-1,3-dihydro-pyrrolo[3,4-c]pyridin-2-yl)-3S-hydroxy-2,2-dimethyl-chroman-6-carbonitrile]
13.8	CC1(C)Oc2ccncc2[C@@H](n2cncc2-c2ccc(Cl)cc2)[C@@H]1O (racemic) [Compound 113, 4-[5-(4-Chloro-phenyl)-imidazol-1-yl]-2,2-dimethyl-3,4-dihydro-2H-pyrano[3,2-c]pyridin-3-ol]
> 30	CCN(CC)S(=O)(=O)c1ccc2c(c1)[C@@H](n1oc3ccc(Cl)cc3c1=O)[C@H](O)C(C)(C)O2 [Compound 86, 4R-(5-Chloro-3-oxo-3H-benzo[d]isoxazol-2-yl)-3S-hydroxy-2,2-dimethyl-chroman-6-sulfonic acid diethylamide]
> 30	N#Cc1ccc2c(c1)[C@@H](NC(=O)c1cccc(Cl)c1)[C@H](OC(=O)c1cccc(Cl)c1)C1(CCS(=O)(=O)CC1)O2 [Compound 202, (3S,4R)-3-Chloro-benzoic acid 4-(3-chloro-benzoylamino)-6-cyano-2,2-(tetrahydro-4-sulfonylpyranyl)-chroman-3-yl ester]
> 30	CC1(C)Oc2ccncc2[C@@H](n2ccnc2-c2ccccc2)[C@@H]1O (racemic) [Compound 105, 2,2-Dimethyl-4-(2-phenyl-imidazol-1-yl)-3,4-dihydro-2H-pyrano[3,2-c]pyridin-3-ol]
> 30	CC1(C)C=C(n2ccnc2-c2ccccc2)c2cc(C#N)ccc2O1 [Compound 61, 2,2-Dimethyl-4-(2-phenyl-imidazol-1-yl)-2H-chromene-6-carbonitrile]
2.29	CC1(C)Oc2ccc(C#N)cc2[C@@H](Nc2nc(=O)c3cc(Cl)ccc3[nH]2)[C@@H]1O (racemic) [Compound 7, 4-(6-Chloro-4-oxo-1,4-dihydro-quinazolin-2-ylamino)-3-hydroxy-2,2-dimethyl-chroman-6-carbonitrile]
> 30	CC1(C)Oc2ccncc2[C@@H](n2ccnc2-c2ccc(Cl)cc2)[C@@H]1O (racemic) [Compound 111, 4-[2-(4-Chloro-phenyl)-imidazol-1-yl]-2,2-dimethyl-3,4-dihydro-2H-pyrano[3,2-c]pyridin-3-ol]
> 30	Cc1cn([C@@H]2c3cc(C#N)ccc3OC(C)(C)[C@H]2O)c(-c2ccccc2)n1 (racemic) [Compound 9, 3-Hydroxy-2,2-dimethyl-4-(4-methyl-2-phenyl-imidazol-1-yl)-chroman-6-carbonitrile]
3.9	CC1(C)Oc2ccc(C#N)cc2[C@@H](Oc2ccc(-c3ccccc3)nn2)[C@@H]1O (racemic) [Compound 52, 3-Hydroxy-2,2-dimethyl-4-(6-phenyl-pyridazin-3-yloxy)-chroman-6-carbonitrile]
4.33	CC1(C)Oc2ccncc2[C@@H](n2nccc2-c2ccc(Cl)cc2)[C@@H]1O (racemic) [Compound 108, 4-[5-(4-Chloro-phenyl)-pyrazol-1-yl]-2,2-dimethyl-3,4-dihydro-2H-pyrano[3,2-c]pyridin-3-ol]
6.94	CC1(C)Oc2ccc(C#N)cc2[C@@H](Oc2noc3ccccc23)[C@@H]1O [Compound 23, (3S,4R)-4-(Benzo[d]isoxazol-3-yloxy)-3-hydroxy-2,2-dimethyl-chroman-6-carbonitrile]
1.94	CC1(C)Oc2ccc(C#N)cc2[C@@H](Oc2ncnc3ccccc23)[C@@H]1O [Compound 40, (3S,4R)-3-Hydroxy-2,2-dimethyl-4-(quinazolin-4-yloxy)-chroman-6-carbonitrile]
